As a reminder, the melting point is the temperature of the solid-liquid transition.

Data set [1] concerns PC3 cells. Briefly: EB1 Comet (microtubule disruption) assay. It counts as cell-based, human. The following applies: Homo sapiens, PC-3, 1 h, 1 hour treatment, read-out: EB1 pLAC (converted). The method, boiled down: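 PC3 human prostate cancer cells exposed to compound for 1 h at 37 °C (0.6% DMSO final), methanol-fixed, immunostained for Eb1 and imaged at 20×. Value is the lowest active concentration (LAC): the concentration at which Eb1 foci are absent in at least 50% of treated cells.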

For data set [2], the system named is HCT116 cells. Nature of the data set: Antiproliferative activity, Alamar Blue assay, HCT116 cells. Type of data set: cell-based, human. To be noted: Homo sapiens, HCT-116, HCT116 cells, read-out: HCT116 antiproliferative activity pIC50 (converted). In short, it runs like this:
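HCT116 cells seeded, adhered 24 h, then exposed to compound for 4 days; Alamar Blue (resazurin) added for 4 h at 37 °C, fluorescence read at 540/590 nm. Viability as % of untreated control, triplicate wells; IC50 by probit analysis, reported as pIC50.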
On the technique in general: Alamar Blue is a resazurin reagent that responds to reducing activity.

The subject of data set [3] is tubulin. Nature of the data set: Tubulin polymerization assay. It counts as biochemical. More on the design: key: a compound showing 0 to 50% inhibition at 20 μM is reported as score 1; Score 2 compounds are defined as compound showing more than 50% inhibition at 20 μM and less than 50% inhibition at 5 μM; a compound showing more than 50% inhibition at 5 μM is reported as score 3. To be noted: tested at 20 μM and 5 μM. The method, boiled down:
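Cytoskeleton kit tubulin was run in a 10 µl final volume at 37 °C, with fluorescence read every minute for 1 h. Polymerization was taken as the maximum slope (4-point linear regression) and expressed as % of no-compound control. Compounds were tested at 20 µM, then at 5 µM if inhibition exceeded 50%, and scored by % inhibition.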

Molecules are shown by their SMILES. Like-named read-outs stand apart in the source and are kept apart here.

In turn, `CCCC(C#N)(Cc1ccccc1)c1ccc2cc(CC)c(=O)[nH]c2c1` (stereo not drawn) [Compound 31] displayed a melting point of 210 °C. In data set [1], the minimal effective concentration is 10 µM. Besides, the IC50 in data set [2] is 3160 nM.
For `CCc1cc2ccc(C(C)(C#N)Cc3cc(OC)ccc3F)cc2[nH]c1=O` (stereo not drawn) [Compound 171] the same measures were 160 °C, 0.1 µM and 126 nM.
Regarding `CCc1cc2ccc(C(C)(C#N)Cc3cccc(-c4ccc[nH]4)c3)cc2[nH]c1=O` (stereo not drawn) [Compound 176], the melting point was determined as 194 °C. Moreover, in data set [1], the minimal effective concentration was 1 µM. Further, the IC50 in data set [2] (Alamar Blue) is 5010 nM.
For `CCc1cc2ccc(C(C)(C#N)Cc3cccc(CCS(C)(=O)=O)c3)cc2[nH]c1=O` (stereo not drawn) [Compound 178] the same measures were 150 °C, 3.16 µM and 3980 nM.
Consider `CCc1cc2ccc(C(C)(C#N)Cc3cccc(/C=N/OC)c3)cc2[nH]c1=O` (stereo not drawn) [Compound 185], for which the melting point worked out at 170 °C. Also, in data set [1], the minimal effective concentration was 0.1 µM. The IC50 in data set [2] is 200 nM.
On to `CCc1cc2ccc(C(C)(C#N)Cc3cccc(OCCCC#N)c3)cc2[nH]c1=O` (stereo not drawn) [Compound 194], for which the melting point came to 148 °C. Further, in data set [1], the minimal effective concentration was 1 µM. Further, the tubulin polymerisation score in data set [3] is 2. For the same compound, the IC50 in data set [2] is 501 nM.
On to `CCc1cc2ccc(C(C)(C#N)Cc3cccc(OCCC#N)c3)cc2[nH]c1=O` (stereo not drawn) [Compound 195], for which the melting point is 161 °C. In addition, in data set [1], the minimal effective concentration is 0.0316 µM. Moreover, the tubulin polymerisation score in data set [3] is on record as 1 (a compound showing 0 to 50% inhibition at 20 μM is reported as score 1). In addition, in data set [2] (Alamar Blue), the IC50 is 251 nM.
In the case of `C#CCOc1cccc(CC(C)(C#N)c2ccc3cc(CC)c(=O)[nH]c3c2)c1` (stereo not drawn) [Compound 196], the melting point worked out at 141 °C. Also, the tubulin polymerisation score in data set [3] is on record as 2. Besides, in data set [2] (Alamar Blue), the IC50 was 631 nM.
With `CCc1cc2ccc(C(C)(C#N)Cc3cccc(OCCS(C)(=O)=O)c3)cc2[nH]c1=O` (stereo not drawn) [Compound 201], the melting point was 55 °C. Also, the minimal effective concentration in data set [1] is 0.562 µM. Moreover, the IC50 in data set [2] was 2510 nM.
In turn, `CCc1cc2ccc(C(C)(C#N)Cc3nc(Cl)cc(OC)n3)cc2[nH]c1=O` (stereo not drawn) [Compound 202] yielded a melting point of 162 °C. Moreover, the tubulin polymerisation score in data set [3] is 2. The IC50 in data set [2] (Alamar Blue) was 200 nM.
With `CCc1cc2ccc(C(C)(C#N)Cc3nc(N(C)C)cc(N(C)C)n3)cc2[nH]c1=O` (stereo not drawn) [Compound 205], the melting point is 194 °C. In data set [1], the minimal effective concentration is 1 µM. Besides, the IC50 in data set [2] (Alamar Blue) is 631 nM.
`CCc1cc2ccc(C(C)(C#N)Cc3cccc(N4CCC(N(C)C)C4)n3)cc2[nH]c1=O` (stereo not drawn) [Compound 209]: the melting point amounted to 154 °C. In data set [1], the minimal effective concentration was 0.316 µM. For the same compound, the IC50 in data set [2] (Alamar Blue) is 2000 nM.
For `CCc1cc2ccc(C(C)(C#N)Cc3cccc(C#Cc4cncn4C)n3)cc2[nH]c1=O` (stereo not drawn) [Compound 217] the same measures were 111 °C, 1 µM and 5010 nM.
`CCc1cc2ccc(C(C)(C#N)Cc3cccc(N(C)CCc4ccccc4)n3)cc2[nH]c1=O.Cl` (stereo not drawn) [Compound 220] yielded a melting point of 99 °C. The minimal effective concentration in data set [1] is 3.16 µM. Besides, the IC50 in data set [2] (Alamar Blue) is 2000 nM.
Regarding `CCc1cc2ccc(C(C)(C#N)Cc3cccc(C#N)[n+]3[O-])cc2[nH]c1=O` (stereo not drawn) [Compound 228], the melting point turned out to be 121 °C. Further, the minimal effective concentration in data set [1] is 0.562 µM. Also, the IC50 in data set [2] is 1580 nM.
Regarding `CCc1cc2c(OC)cc(C(C)(C#N)Cc3nc(OC)cc(OC)n3)cc2[nH]c1=O` (stereo not drawn) [Compound 229], the melting point came out at 180 °C. Besides, the minimal effective concentration in data set [1] was 3.16 µM. The IC50 in data set [2] (Alamar Blue) is 2510 nM.
`CCc1cc2ccc(C(C)(C#N)CN3CCN(c4ccccn4)CC3)cc2[nH]c1=O` (stereo not drawn) [Compound 233] yielded a melting point of 209 °C. The minimal effective concentration in data set [1] was 1 µM. The tubulin polymerisation score in data set [3] was 1 (a compound showing 0 to 50% inhibition at 20 μM is reported as score 1). Moreover, the IC50 in data set [2] (Alamar Blue) was 1000 nM.
The compound `CCc1cc2ccc(C(C)(C#N)Cc3cccc4c3CCN4)cc2[nH]c1=O` (stereo not drawn) [Compound 237] yielded a melting point of 210 to 211 °C. Further, in data set [1], the minimal effective concentration is 3.16 µM. In data set [2] (Alamar Blue), the IC50 is 2510 nM.
